Data: ChEMBL document CHEMBL1201862, “PubChem BioAssay data set” (2004)
Active and inactive are the calls of the source.

Key:
CAAX prenyl protease 2 [1] = molecular target: T1, CAAX prenyl protease 2 (Homo sapiens, UniProt Q9Y256); assay: inhibition of Ras-converting CAAX protease Rce1 – biochemical, yeast membranes, quenched-peptide fluorescence, cherry-pick, dose response (AID 588849)
T1 sequence (Q9Y256 whole entry): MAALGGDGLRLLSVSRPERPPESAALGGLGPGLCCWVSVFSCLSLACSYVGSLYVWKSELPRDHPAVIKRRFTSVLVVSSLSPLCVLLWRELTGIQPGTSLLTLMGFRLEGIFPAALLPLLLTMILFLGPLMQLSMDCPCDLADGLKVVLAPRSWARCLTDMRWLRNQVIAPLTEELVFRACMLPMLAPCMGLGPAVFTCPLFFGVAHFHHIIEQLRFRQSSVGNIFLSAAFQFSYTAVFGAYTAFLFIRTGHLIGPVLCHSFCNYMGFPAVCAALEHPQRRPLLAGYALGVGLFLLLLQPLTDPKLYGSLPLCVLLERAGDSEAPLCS

Streptococcus = assay: GAS UMAA2166 growth inhibition – luminescence, BacTiterGlo, counter-screen for streptokinase expression inhibitor project, dose response (AID 1915); format: functional, organism-based;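 further: potency for reduction of bacterial viability or growth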
[2] = tested on: Streptococcus sp. 'group A'; assay: Streptococcus pyogenes SK(-)GAS viability under kanamycin – luminescence, BacTiterGlo, confirmation, counter-screen for streptokinase expression inhibitor project, dose response (AID 1900); format: functional, organism-based
Streptokinase A = molecular target: T2, Streptokinase A (Streptococcus pyogenes serotype M1, UniProt P10520); assay: viability-normalized secreted streptokinase activity reduction – plasminogen activation absorbance, OD405, dose response (AID 1914); format: functional, Streptococcus pyogenes M1 GAS;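 further: secreted streptokinase activity via plasminogen activation per viability signal from cell pellet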
T2 sequence (P10520 whole entry): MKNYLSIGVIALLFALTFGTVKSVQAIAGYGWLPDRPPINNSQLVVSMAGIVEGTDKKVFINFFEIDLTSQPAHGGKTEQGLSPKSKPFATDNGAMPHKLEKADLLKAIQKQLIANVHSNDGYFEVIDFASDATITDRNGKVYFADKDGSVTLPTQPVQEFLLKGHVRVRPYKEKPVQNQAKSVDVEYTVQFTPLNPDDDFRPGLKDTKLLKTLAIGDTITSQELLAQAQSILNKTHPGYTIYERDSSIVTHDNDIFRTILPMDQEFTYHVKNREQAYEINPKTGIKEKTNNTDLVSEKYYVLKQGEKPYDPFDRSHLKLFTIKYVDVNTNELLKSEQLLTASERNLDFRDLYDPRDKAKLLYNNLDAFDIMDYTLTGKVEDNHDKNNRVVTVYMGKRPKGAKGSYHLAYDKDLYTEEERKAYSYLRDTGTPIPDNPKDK

Troponin, cardiac muscle = Troponin, cardiac muscle (Homo sapiens, UniProt P19429+P45379+P63316); assay: Fluorescence-based biochemical high throughput dose response assay for activators of the calcium sensitivity of cardiac Regulated Thin Filaments (RTF). [Related pubchem assays (depositor defined):AID493008, AID493018, AID504382, AID504383]; format: protein-complex assay
Tumor necrosis factor = Tumor necrosis factor (Homo sapiens, UniProt P01375); assay: analog potency on TNFa NF-kB signaling – cell-based, revised, SAR follow-up (AID 2337); format: functional
[3] = molecular target: T3, Nucleotide-binding oligomerization domain-containing protein 1 (Homo sapiens, UniProt Q9Y239); assay: blockers of NOD1 pathway activity – revised, SAR follow-up (AID 2333); format: functional
T3 sequence (Q9Y239 whole entry): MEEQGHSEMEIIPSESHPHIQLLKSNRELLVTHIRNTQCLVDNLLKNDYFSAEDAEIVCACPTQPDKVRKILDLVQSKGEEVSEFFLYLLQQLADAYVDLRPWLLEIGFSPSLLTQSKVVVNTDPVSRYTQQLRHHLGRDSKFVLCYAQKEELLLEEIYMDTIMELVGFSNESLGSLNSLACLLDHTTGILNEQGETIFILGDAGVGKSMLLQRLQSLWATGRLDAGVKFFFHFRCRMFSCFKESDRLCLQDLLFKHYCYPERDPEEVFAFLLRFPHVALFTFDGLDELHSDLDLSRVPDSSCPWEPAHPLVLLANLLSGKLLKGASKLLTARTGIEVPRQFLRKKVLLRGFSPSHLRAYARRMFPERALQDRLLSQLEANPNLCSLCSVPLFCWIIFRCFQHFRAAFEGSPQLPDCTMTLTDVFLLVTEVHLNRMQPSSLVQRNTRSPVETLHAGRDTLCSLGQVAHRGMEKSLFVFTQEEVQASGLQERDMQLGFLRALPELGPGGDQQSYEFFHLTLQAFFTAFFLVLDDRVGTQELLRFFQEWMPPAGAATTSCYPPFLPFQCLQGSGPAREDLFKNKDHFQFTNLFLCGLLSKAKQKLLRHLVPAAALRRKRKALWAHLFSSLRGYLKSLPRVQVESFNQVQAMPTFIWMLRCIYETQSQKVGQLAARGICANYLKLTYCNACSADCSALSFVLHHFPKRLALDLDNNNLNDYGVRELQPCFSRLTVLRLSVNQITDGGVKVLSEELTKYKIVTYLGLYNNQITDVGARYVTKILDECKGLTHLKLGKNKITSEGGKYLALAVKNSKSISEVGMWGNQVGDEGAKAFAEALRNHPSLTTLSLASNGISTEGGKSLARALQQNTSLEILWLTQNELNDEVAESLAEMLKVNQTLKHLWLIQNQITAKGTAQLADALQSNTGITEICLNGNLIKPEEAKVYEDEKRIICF

HEK293 [4] = assay: cells; settings: Homo sapiens
[5] = molecular target: T4, Short transient receptor potential channel 4 (Mus musculus, UniProt Q9QUQ5); assay: block of DAMGO-driven TRPC4 calcium entry – cell-based, HEK293 TRPC4/mu-opioid, Fluo-4 calcium, dose response (AID 434942); format: functional;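 further: potency of inhibitors blocking the TRPC4 calcium response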
T4 sequence (Q9QUQ5 whole entry): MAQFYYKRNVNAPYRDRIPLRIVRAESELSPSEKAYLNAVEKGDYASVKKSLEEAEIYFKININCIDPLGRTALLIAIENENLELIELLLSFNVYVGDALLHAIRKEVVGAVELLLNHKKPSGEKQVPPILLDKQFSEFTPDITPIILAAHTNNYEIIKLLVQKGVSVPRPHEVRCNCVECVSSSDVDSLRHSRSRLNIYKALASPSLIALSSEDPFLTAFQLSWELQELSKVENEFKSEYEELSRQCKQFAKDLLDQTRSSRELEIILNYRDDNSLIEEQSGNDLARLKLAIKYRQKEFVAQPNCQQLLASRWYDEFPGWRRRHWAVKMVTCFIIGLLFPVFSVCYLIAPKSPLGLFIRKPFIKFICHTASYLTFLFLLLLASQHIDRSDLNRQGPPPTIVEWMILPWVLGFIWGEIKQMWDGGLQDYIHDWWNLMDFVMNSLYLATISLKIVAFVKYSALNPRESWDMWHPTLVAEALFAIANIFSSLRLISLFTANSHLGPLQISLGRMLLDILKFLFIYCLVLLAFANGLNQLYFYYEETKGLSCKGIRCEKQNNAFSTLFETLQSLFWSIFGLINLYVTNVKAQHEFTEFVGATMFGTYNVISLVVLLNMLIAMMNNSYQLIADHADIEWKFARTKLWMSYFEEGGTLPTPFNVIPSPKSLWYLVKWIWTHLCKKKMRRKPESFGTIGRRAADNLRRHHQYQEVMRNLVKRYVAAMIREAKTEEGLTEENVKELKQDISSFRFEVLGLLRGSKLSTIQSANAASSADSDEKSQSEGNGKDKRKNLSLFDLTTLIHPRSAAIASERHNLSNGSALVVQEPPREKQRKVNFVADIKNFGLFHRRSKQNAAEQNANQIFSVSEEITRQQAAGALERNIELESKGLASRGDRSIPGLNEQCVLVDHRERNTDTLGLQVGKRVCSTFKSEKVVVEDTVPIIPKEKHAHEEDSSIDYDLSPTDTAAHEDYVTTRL

[6] = molecular target: T4, Short transient receptor potential channel 4; assay: calcium entry via TRPC4 opening agents – cell-based, HEK293 TRPC4/mu-opioid, Fluo-4 calcium, dose response (AID 434937); format: functional
CAAX prenyl protease 2 [7] = molecular target: T5, CAAX prenyl protease 2 (Saccharomyces cerevisiae S288c, UniProt Q03530); format: biochemical
T5 sequence (Q03530 whole entry): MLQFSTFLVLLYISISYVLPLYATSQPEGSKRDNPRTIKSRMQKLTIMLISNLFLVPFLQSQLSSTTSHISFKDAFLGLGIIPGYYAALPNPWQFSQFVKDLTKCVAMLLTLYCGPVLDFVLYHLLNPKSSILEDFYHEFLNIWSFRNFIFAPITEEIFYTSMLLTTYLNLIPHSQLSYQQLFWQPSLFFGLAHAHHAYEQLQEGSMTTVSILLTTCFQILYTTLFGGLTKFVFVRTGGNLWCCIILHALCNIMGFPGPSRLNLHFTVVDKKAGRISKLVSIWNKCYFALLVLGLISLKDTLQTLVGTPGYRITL

HEK293 [8] = assay: NOD2 signaling inhibitors in MDP-stimulated cells, cell-based, uHTS, luminescence (AID 2001); format: functional; settings: Homo sapiens
INS1 = assay: INS-1E survival protection against cytokine death – cell-based, luminescence, retest, dose response (AID 449756); format: functional; settings: Rattus norvegicus;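 further: cell death triggered by IL-1 beta plus TNF-alpha plus IFN-gamma mixture; protective hits raise ATP signal compared with cytokine alone wells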
[9] = HEK-293T cell viability reduction – luminescence, B-cell screen hits, cytotoxicity control for BCR NF-kB inhibitor project, dose response (AID 489021); format: functional, cell-based;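 further: HEK-293T cells carrying an NF-kB luciferase reporter; cells exposed to compound for about 14 hours before viability readout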
HEK293 [10] = assay: cells; format: functional, cell-based; settings: Homo sapiens
HEK293 [11] = assay: cells; format: functional, cell-based; settings: Homo sapiens; remark: listed apart in the source
HEK293 [12] = assay: inhibition of NOD1-driven NF-kB reporter – cell-based, luminescence, uHTS, primary screen (AID 1578); format: functional; settings: Homo sapiens
[13] = molecular target: T6, COUP transcription factor 2 (Homo sapiens, UniProt P24468); assay: Luminescence-based cell-based high throughput dose response assay to identify inhibitors of COUP-TFII (NR2F2).; format: functional;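 further: HEK293 cells transiently cotransfected with COUP-TFII expression vector and reporter; luciferase reporter luminescence driven by COUP-TFII from the pX2-168 reporter plasmid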
T6 sequence (P24468 whole entry): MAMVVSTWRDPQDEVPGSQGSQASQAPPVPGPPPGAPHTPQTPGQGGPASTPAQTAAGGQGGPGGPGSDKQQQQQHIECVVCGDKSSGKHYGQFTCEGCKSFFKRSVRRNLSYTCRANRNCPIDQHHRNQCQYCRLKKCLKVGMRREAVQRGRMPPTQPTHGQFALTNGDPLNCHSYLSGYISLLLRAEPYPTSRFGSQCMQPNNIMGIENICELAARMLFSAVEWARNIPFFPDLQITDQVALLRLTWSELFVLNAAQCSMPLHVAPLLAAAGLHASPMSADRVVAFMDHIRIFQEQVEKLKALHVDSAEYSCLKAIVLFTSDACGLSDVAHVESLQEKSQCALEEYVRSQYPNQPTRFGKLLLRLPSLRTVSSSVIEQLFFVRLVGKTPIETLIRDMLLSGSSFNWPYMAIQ

Sequence of Tumor necrosis factor (P01375 whole entry, the tested form may be a part): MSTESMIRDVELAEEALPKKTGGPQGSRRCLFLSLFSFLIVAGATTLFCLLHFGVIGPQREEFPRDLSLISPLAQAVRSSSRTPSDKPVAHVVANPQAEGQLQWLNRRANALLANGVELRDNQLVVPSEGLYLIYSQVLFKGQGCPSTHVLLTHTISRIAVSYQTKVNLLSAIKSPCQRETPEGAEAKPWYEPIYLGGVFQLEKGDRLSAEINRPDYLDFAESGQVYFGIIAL

CS(=O)(=O)Cc1ccc(C(=O)N(CCc2ccccc2)Cc2ccccc2)cc1
AC50 (CAAX prenyl protease 2 [1]): 35.8 µM (active)

COc1ccc(-c2oc3ncn(Cc4ccco4)c(=N)c3c2-c2ccc(OC)cc2)cc1
AC50 (CAAX prenyl protease 2 [1]): 79.2 µM (active)
EC50 (Streptococcus): > 150 µM (not active)
EC50 [2]: 6.01 µM (active)
EC50 (Streptokinase A): 14.8 µM (active)

Cc1cccn2c(=O)c(/C=C3\SC(=S)N(CC(C)C)C3=O)c(NCCCOC(C)C)nc12
EC50 (Troponin, cardiac muscle): 0.287 µM (active)

CCC(=O)N1c2ccc(S(=O)(=O)N3CCN(c4ccc(C(C)=O)cc4)CC3)cc2CC1C (stereo not drawn)
IC50 (Tumor necrosis factor): 1.63 µM (active)
IC50 [3]: 2 µM (active)
IC50 (HEK293 [4]): 14.7 µM (active)

Cc1ccc(C)c(C(=O)CSc2nnc(C(C)C)[nH]2)c1
EC50 (Troponin, cardiac muscle): > 71.5 µM (inactive)

O=C(NC(=S)NNC(=O)c1ccco1)c1ccc(Br)cc1
EC50 [5]: 13.3 µM (active)
EC50 (Streptococcus): 2.16 µM (active)
EC50 [2]: 1.03 µM (active)
EC50 [6]: 5.96 µM (active)

COc1ccc(-n2nc(C(=O)NCC(=O)N3CCC(C)CC3)c3ccccc3c2=O)cc1
AC50 (CAAX prenyl protease 2 [7]): 3.87 µM (active)

COc1ccc(-c2nc(CN3CCN(c4ncnc5ccccc45)CC3)c(C)o2)cc1
IC50 (Tumor necrosis factor): 4.08 µM (active)
IC50 [3]: 3.13 µM (active)
IC50 (HEK293 [4]): 11.9 µM (active)

CCOc1ccc(-c2nc(CCl)cs2)cc1OC
AC50 (CAAX prenyl protease 2 [1]): > 100 µM (inactive)

Cn1cnnc1Sc1nc2ccccc2nc1NS(=O)(=O)c1ccccc1
EC50 (Troponin, cardiac muscle): > 71.5 µM (inactive)

COc1ccc(NS(=O)(=O)c2ccc(-c3coc(C)n3)cc2)cc1OC
IC50 (HEK293 [8]): 6.82 µM (active)
AC50 (INS1): 2.88 µM (active)
IC50 [9]: > 80 µM (inactive)
IC50 (HEK293 [10]): > 20 µM (inactive)
IC50 (HEK293 [11]): 4.75 µM (active)
EC50 (HEK293 [12]): 1.1 µM (active)
IC50 [13]: 5.85 µM (active)

C=C(C)CSc1nc2sc3c(c2c(=O)n1-c1ccc(OC)cc1)CCN(C)C3
AC50 (CAAX prenyl protease 2 [7]): 3.45 µM (active)
